Measured values: patent publication US6884906B2, “Menthyl half acid ester derivatives, processes for preparing same, and uses thereof for their cooling/refreshing effect in consumable materials” (International Flavors & Fragrances Inc., priority 2003, dated 2005)

How the values were obtained:
Type in all cases: in vivo
[1] = tested on: oral cavity; test: Flavor and sensory characteristics at use level of 25 ppm in water
[2] = tested on: oral cavity; test: Sensory evaluation in cherry-flavored hard candy; details: 0.2 grams added to recipe yielding 200 grams of hard candy; versus control candy
Procedure: The following formulation was prepared: […]
The above formulation was added to a stainless steel pot. With constant mixing, the formulation temperature was raised to 295° F. The pot was then removed from the heat, and 0.3 grams of cherry flavor containing the ingredients in equal amounts benzaldehyde, tolyl aldehyde, ethyl acetate, maltol, Davana oil and methyl heptinyl carbonate and 1.2 grams of citric acid was added. The resulting liquid candy was then deposited into molds, and the molds containing the liquid candy were cooled to room temperature, yielding 200 grams of finished hard candy. […] A second candy sample was prepared using the above recipe modified by the addition of 0.2 grams of menthyl succinamide prepared according to the procedure of Example I (A).

[3] = tested on: oral cavity; test: Sensory evaluation in fruity citrus chewing gum; details: 1 part by weight added to gum of 100 parts chicle, 4 parts flavor, 300 parts sucrose, 100 parts corn syrup; versus control gum
Procedure: 100 parts by weight of chicle were mixed with 4 parts by weight of a fruity citrus gum flavor which was a blend of lemon oil, ethyl butyrate, ethyl acetate, benzaldehyde, citral and alpha ionone in equal portions. To the resulting mixture, 300 parts by weight of sucrose and 100 parts by weight of corn syrup were added. Mixing was effected in a ribbon blender with jacketed sidewalls, manufactured by Baker Perkins Co. The resultant chewing gum blend was then manufactured into strips 1 inch in width and 0.1 inches in thickness. These strips were cut into lengths of 3 inches each. […] A second gum sample was prepared using the above recipe with the addition of 1 part by weight of menthyl N,N-dimethyl succinamide, prepared according to Example I(C).

| Compound | Cooling Duration [1] [min] | Onset Time [1] [s] | cooling effect in hard candy [2] | cooling effect in chewing gum [3] |
| --- | --- | --- | --- | --- |
| CC(C)[C@@H]1CC[C@@H](C)C[C@H]1OC(=O)CCCCC(=O)O [Example I(I), Hexanedioic acid, mono(5-methyl-2-(1-methylethyl)cyclohexyl) ester, (1R-(1α,2β,5α))-] | 10.5 | 34 | – | – |
| CCNC(=O)CCC(=O)O[C@@H]1C[C@H](C)CC[C@H]1C(C)C [I(D), Butanoic acid, 4-ethylamino-4-oxo, (5-methyl-2-(1-methylethyl)cyclohexyl)ester, (1R-(1α,2β,5α))-] | 7 | 35 | – | – |
| CC(C)[C@@H]1CC[C@@H](C)C[C@H]1OC(=O)CCC(N)=O [Example I(A), Butanoic acid, 4-amino-4-oxo, (5-methyl-2-(1-methylethyl)cyclohexyl)ester, (1R-(1α,2β,5α))-] | 7.5 | 8 to 25 | moderately strong and substantive cooling effect | – |
| CC(C)[C@@H]1CC[C@@H](C)C[C@H]1OC(=O)CCC(=O)NCCO [Example I(E), Butanoic acid, 4-(2-hydroxyethyl)amino-4-oxo, (5-methyl-2-(1-methylethyl)cyclohexyl) ester, (1R-(1α,2β,5α))-] | 15 | 11 | – | – |
| Pentanoic acid, 4-methylamino-4-oxo, (5-methyl-2-(1-methylethyl)cyclohexyl) ester, (1R-(1α,2β,5α))- [Example I(G)] | 5 | 20 | – | – |
| CC(C)[C@@H]1CC[C@@H](C)C[C@H]1OC(=O)CCC(=O)N(C)C [Example I(C), Butanoic acid, 4-dimethylamino-4-oxo, (5-methyl-2-(1-methylethyl)cyclohexyl)ester, (1R-(1α,2β,5α))-] | 11.25 | 25 | – | pleasant and substantive cooling effect on the tongue and roof of the mouth |
| CNC(=O)CCC(=O)O[C@@H]1C[C@H](C)CC[C@H]1C(C)C [Example I(B), Butanoic acid, 4-methylamino-4-oxo, (5-methyl-2-(1-methylethyl)cyclohexyl)ester, (1R-(1α,2β,5α))] | 7 | 15 to 25 | – | – |
